Measured values reported in ChEMBL document CHEMBL1145390, “Synthesis and preliminary biological characterization of new semisynthetic derivatives of ramoplanin” (J Med Chem, 2007).
Converted amounts (≈) assume the structure as drawn.

Legend:
Enterococcus faecalis [1] = test: Antibacterial activity against vancomycin A-resistant Enterococcus faecalis after 24 hrs by broth microdilution method; type: functional; settings: read-out: MIC
Escherichia coli = test: Antibacterial activity against Escherichia coli SKF-12140 after 24 hrs by broth microdilution method; type: functional
Staphylococcus aureus [2] = test: Antibacterial activity against methicillin-resistant Staphylococcus aureus clinical isolate after 24 hrs by broth microdilution method; type: functional; settings: read-out: MIC
[3] = Toxicity assessed as hemolysis in erythrocytes at 180 mg/L; type: cell-based, Erythrocyte; settings: human; for hemolysis at 180 mg/L: erythrocytes, read-out: Activity
Staphylococcus aureus [4] = test: Antibacterial activity against vancomycin-intermediate resistant Staphylococcus aureus clinical isolate after 24 hrs by broth microdilution method; type: functional
Streptococcus pyogenes = test: Antibacterial activity against Streptococcus pyogenes C203 after 24 hrs by broth microdilution method; type: functional; settings: C203, 24 h
[5] = Toxicity assessed as hemolysis in erythrocytes at 90 mg/L; type: cell-based, Erythrocyte; settings: human; for hemolysis at 90 mg/L: erythrocytes, read-out: Activity
Staphylococcus aureus [6] = test: Antibacterial activity against Staphylococcus aureus Smith after 24 hrs by broth microdilution method; type: functional; settings: read-out: MIC
Enterococcus faecalis [7] = test: Antibacterial activity against Enterococcus faecalis after 24 hrs by broth microdilution method; type: functional; settings: read-out: MIC
Enterococcus faecium [8] = test: Antibacterial activity against Enterococcus faecium after 24 hrs by broth microdilution method; type: functional; settings: read-out: MIC
Enterococcus faecium [9] = test: Antibacterial activity against vancomycin A-resistant Enterococcus faecium clinical isolate after 24 hrs by broth microdilution method; type: functional; settings: read-out: MIC
Candida albicans = test: Antifungal activity against Candida albicans SKF-2270 after 24 hrs by broth microdilution method; type: functional
Staphylococcus aureus [10] = test: Antibacterial activity against methicillin-resistant and vancomycin-intermediate resistant Staphylococcus aureus clinical isolate after 24 hrs by broth microdilution method; type: functional

| Structure (SMILES) | MIC (Enterococcus faecalis [1]) [µg/mL] | MIC (Escherichia coli; read-out: MIC) [µg/mL] | MIC (Staphylococcus aureus [2]) [µg/mL] | hemolysis at 180 mg/L [3] [%] | MIC (Staphylococcus aureus [4]) [µg/mL] | MIC (Streptococcus pyogenes; read-out: MIC) [µg/mL] | hemolysis at 90 mg/L [5] [%] | MIC (Staphylococcus aureus [6]) [µg/mL] | MIC (Enterococcus faecalis [7]) [µg/mL] | MIC (Enterococcus faecium [8]) [µg/mL] | MIC (Enterococcus faecium [9]) [µg/mL] | MIC (Candida albicans; read-out: MIC) [µg/mL] | MIC (Staphylococcus aureus [10]; read-out: MIC) [µg/mL] | MIC (Escherichia coli) [µg/mL] | Activity ([3]; erythrocyte) [%] | MIC (Streptococcus pyogenes) [µg/mL] | Activity ([5]; erythrocyte) [%] | MIC (Candida albicans) [µg/mL] | MIC (Staphylococcus aureus [10]) [µg/mL] |
| --- | --- | --- | --- | --- | --- | --- | --- | --- | --- | --- | --- | --- | --- | --- | --- | --- | --- | --- | --- |
| CC(C)C[C@@H]1NC(=O)CNC(=O)[C@H](c2ccc(O)cc2)NC(=O)[C@@H]([C@@H](C)O)NC(=O)[C@H](c2ccc(O[C@H]3O[C@H](CO)[C@@H](O)[C@H](O)[C@@H]3O[C@H]3O[C@H](CO)[C@@H](O)[C@H](O)[C@@H]3O)cc2)NC(=O)[C@@H](CCCN)NC(=O)[C@H](Cc2ccccc2)NC(=O)[C@H]([C@@H](C)O)NC(=O)[C@@H](c2ccc(O)cc2)NC(=O)[C@H](c2ccc(O)cc2)NC(=O)[C@@H](C(C)C)NC(=O)[C@@H](CCCN)NC(=O)[C@@H](c2ccc(O)cc2)NC(=O)[C@@H](CNC(=O)[C@H](CC(N)=O)NC(=O)Cc2ccc(Cl)cc2)[C@@H](C(N)=O)OC(=O)[C@H](c2ccc(O)c(Cl)c2)NC(=O)[C@@H](C)NC1=O | 0.5 (≈ 0.194 µM) | > 32 | 0.5 (≈ 0.194 µM) | 0 | 2 (≈ 0.774 µM) | ≤ 0.03 | 0 | 0.5 (≈ 0.194 µM) | 0.5 (≈ 0.194 µM) | 1 (≈ 0.387 µM) | 1 (≈ 0.387 µM) | > 32 | 4 (≈ 1.55 µM) | – | – | – | – | – | – |
| CCOc1ccc(C(=O)N[C@@H](CC(N)=O)C(=O)NC[C@@H]2C(=O)N[C@H](c3ccc(O)cc3)C(=O)N[C@H](CCCN)C(=O)N[C@H](C(C)C)C(=O)N[C@@H](c3ccc(O)cc3)C(=O)N[C@H](c3ccc(O)cc3)C(=O)N[C@@H]([C@@H](C)O)C(=O)N[C@@H](Cc3ccccc3)C(=O)N[C@H](CCCN)C(=O)N[C@@H](c3ccc(O[C@H]4O[C@H](CO)[C@@H](O)[C@H](O)[C@@H]4O[C@H]4O[C@H](CO)[C@@H](O)[C@H](O)[C@@H]4O)cc3)C(=O)N[C@H]([C@@H](C)O)C(=O)N[C@@H](c3ccc(O)cc3)C(=O)NCC(=O)N[C@@H](CC(C)C)C(=O)N[C@H](C)C(=O)N[C@@H](c3ccc(O)c(Cl)c3)C(=O)O[C@@H]2C(N)=O)cc1 | 2 (≈ 0.776 µM) | > 32 | 2 (≈ 0.776 µM) | 1 | 8 (≈ 3.1 µM) | < 0.03 | 1 | 1 (≈ 0.388 µM) | 2 (≈ 0.776 µM) | 2 (≈ 0.776 µM) | 2 (≈ 0.776 µM) | > 32 | 32 (≈ 12.4 µM) | – | – | – | – | – | – |
| CC(C)C[C@@H]1NC(=O)CNC(=O)[C@H](c2ccc(O)cc2)NC(=O)[C@@H]([C@@H](C)O)NC(=O)[C@H](c2ccc(O[C@H]3O[C@H](CO)[C@@H](O)[C@H](O)[C@@H]3O[C@H]3O[C@H](CO)[C@@H](O)[C@H](O)[C@@H]3O)cc2)NC(=O)[C@@H](CCCN)NC(=O)[C@H](Cc2ccccc2)NC(=O)[C@H]([C@@H](C)O)NC(=O)[C@@H](c2ccc(O)cc2)NC(=O)[C@H](c2ccc(O)cc2)NC(=O)[C@@H](C(C)C)NC(=O)[C@@H](CCCN)NC(=O)[C@@H](c2ccc(O)cc2)NC(=O)[C@@H](CNC(=O)[C@H](CC(N)=O)NC(=O)Cc2ccccc2)[C@@H](C(N)=O)OC(=O)[C@H](c2ccc(O)c(Cl)c2)NC(=O)[C@@H](C)NC1=O | 0.004 (≈ 0.00157 µM) | – | 0.002 (≈ 0.000785 µM) | – | 0.008 (≈ 0.00314 µM) | – | – | 0.002 (≈ 0.000785 µM) | 0.004 (≈ 0.00157 µM) | 0.008 (≈ 0.00314 µM) | 0.004 (≈ 0.00157 µM) | – | – | > 32 | 0 | 0.06 (≈ 0.0235 µM) | 0 | > 32 | 16 (≈ 6.28 µM) |
| CCCCCCCCC(=O)N[C@@H](CC(N)=O)C(=O)NC[C@@H]1C(=O)N[C@H](c2ccc(O)cc2)C(=O)N[C@H](CCCN)C(=O)N[C@H](C(C)C)C(=O)N[C@@H](c2ccc(O)cc2)C(=O)N[C@H](c2ccc(O)cc2)C(=O)N[C@@H]([C@@H](C)O)C(=O)N[C@@H](Cc2ccccc2)C(=O)N[C@H](CCCN)C(=O)N[C@@H](c2ccc(O[C@H]3O[C@H](CO)[C@@H](O)[C@H](O)[C@@H]3O[C@H]3O[C@H](CO)[C@@H](O)[C@H](O)[C@@H]3O)cc2)C(=O)N[C@H]([C@@H](C)O)C(=O)N[C@@H](c2ccc(O)cc2)C(=O)NCC(=O)N[C@@H](CC(C)C)C(=O)N[C@H](C)C(=O)N[C@@H](c2ccc(O)c(Cl)c2)C(=O)O[C@@H]1C(N)=O | 0.06 (≈ 0.0233 µM) | > 32 | 1 (≈ 0.389 µM) | 5 | 4 (≈ 1.56 µM) | 0.125 (≈ 0.0486 µM) | 0 | 0.25 (≈ 0.0973 µM) | 0.06 (≈ 0.0233 µM) | 0.125 (≈ 0.0486 µM) | < 0.03 | > 32 | 8 (≈ 3.11 µM) | – | – | – | – | – | – |
| CC(C)C[C@@H]1NC(=O)CNC(=O)[C@H](c2ccc(O)cc2)NC(=O)[C@@H]([C@@H](C)O)NC(=O)[C@H](c2ccc(O[C@H]3O[C@H](CO)[C@@H](O)[C@H](O)[C@@H]3O[C@H]3O[C@H](CO)[C@@H](O)[C@H](O)[C@@H]3O)cc2)NC(=O)[C@@H](CCCN)NC(=O)[C@H](Cc2ccccc2)NC(=O)[C@H]([C@@H](C)O)NC(=O)[C@@H](c2ccc(O)cc2)NC(=O)[C@H](c2ccc(O)cc2)NC(=O)[C@@H](C(C)C)NC(=O)[C@@H](CCCN)NC(=O)[C@@H](c2ccc(O)cc2)NC(=O)[C@@H](CNC(=O)[C@H](CC(N)=O)NC(=O)c2cccc3ccccc23)[C@@H](C(N)=O)OC(=O)[C@H](c2ccc(O)c(Cl)c2)NC(=O)[C@@H](C)NC1=O | 0.5 (≈ 0.193 µM) | > 32 | 2 (≈ 0.774 µM) | 25 | 8 (≈ 3.1 µM) | ≤ 0.03 | 14 | 1 (≈ 0.387 µM) | 0.5 (≈ 0.193 µM) | 1 (≈ 0.387 µM) | 1 (≈ 0.387 µM) | > 32 | 8 (≈ 3.1 µM) | – | – | – | – | – | – |
| CCCCC(=O)N[C@@H](CC(N)=O)C(=O)NC[C@@H]1C(=O)N[C@H](c2ccc(O)cc2)C(=O)N[C@H](CCCN)C(=O)N[C@H](C(C)C)C(=O)N[C@@H](c2ccc(O)cc2)C(=O)N[C@H](c2ccc(O)cc2)C(=O)N[C@@H]([C@@H](C)O)C(=O)N[C@@H](Cc2ccccc2)C(=O)N[C@H](CCCN)C(=O)N[C@@H](c2ccc(O[C@H]3O[C@H](CO)[C@@H](O)[C@H](O)[C@@H]3O[C@H]3O[C@H](CO)[C@@H](O)[C@H](O)[C@@H]3O)cc2)C(=O)N[C@H]([C@@H](C)O)C(=O)N[C@@H](c2ccc(O)cc2)C(=O)NCC(=O)N[C@@H](CC(C)C)C(=O)N[C@H](C)C(=O)N[C@@H](c2ccc(O)c(Cl)c2)C(=O)O[C@@H]1C(N)=O | 8 (≈ 3.18 µM) | > 32 | 8 (≈ 3.18 µM) | 0 | 32 (≈ 12.7 µM) | 0.125 (≈ 0.0497 µM) | 0 | 8 (≈ 3.18 µM) | 8 (≈ 3.18 µM) | 8 (≈ 3.18 µM) | 8 (≈ 3.18 µM) | > 32 | > 32 | – | – | – | – | – | – |
| Cc1ccc(C(=O)N[C@@H](CC(N)=O)C(=O)NC[C@@H]2C(=O)N[C@H](c3ccc(O)cc3)C(=O)N[C@H](CCCN)C(=O)N[C@H](C(C)C)C(=O)N[C@@H](c3ccc(O)cc3)C(=O)N[C@H](c3ccc(O)cc3)C(=O)N[C@@H]([C@@H](C)O)C(=O)N[C@@H](Cc3ccccc3)C(=O)N[C@H](CCCN)C(=O)N[C@@H](c3ccc(O[C@H]4O[C@H](CO)[C@@H](O)[C@H](O)[C@@H]4O[C@H]4O[C@H](CO)[C@@H](O)[C@H](O)[C@@H]4O)cc3)C(=O)N[C@H]([C@@H](C)O)C(=O)N[C@@H](c3ccc(O)cc3)C(=O)NCC(=O)N[C@@H](CC(C)C)C(=O)N[C@H](C)C(=O)N[C@@H](c3ccc(O)c(Cl)c3)C(=O)O[C@@H]2C(N)=O)cc1 | 2 (≈ 0.785 µM) | > 32 | 4 (≈ 1.57 µM) | 3 | 8 (≈ 3.14 µM) | < 0.03 | 5 | 4 (≈ 1.57 µM) | 2 (≈ 0.785 µM) | 4 (≈ 1.57 µM) | 2 (≈ 0.785 µM) | > 32 | 4 (≈ 1.57 µM) | – | – | – | – | – | – |
| CC(C)C[C@@H]1NC(=O)CNC(=O)[C@H](c2ccc(O)cc2)NC(=O)[C@@H]([C@@H](C)O)NC(=O)[C@H](c2ccc(O[C@H]3O[C@H](CO)[C@@H](O)[C@H](O)[C@@H]3O[C@H]3O[C@H](CO)[C@@H](O)[C@H](O)[C@@H]3O)cc2)NC(=O)[C@@H](CCCN)NC(=O)[C@H](Cc2ccccc2)NC(=O)[C@H]([C@@H](C)O)NC(=O)[C@@H](c2ccc(O)cc2)NC(=O)[C@H](c2ccc(O)cc2)NC(=O)[C@@H](C(C)C)NC(=O)[C@@H](CCCN)NC(=O)[C@@H](c2ccc(O)cc2)NC(=O)[C@@H](CNC(=O)[C@H](CC(N)=O)NC(=O)Cc2ccc(O)cc2)[C@@H](C(N)=O)OC(=O)[C@H](c2ccc(O)c(Cl)c2)NC(=O)[C@@H](C)NC1=O | – | > 32 | > 32 | 0 | > 32 | 1 (≈ 0.39 µM) | 0 | > 32 | > 32 | > 32 | – | > 32 | > 32 | – | – | – | – | – | – |
